Measurements reported in patent US20020137929A1, “1 - (3-heterocyclylphenyl) isothiourea, -isourea, -guanidine and -amidine herbicidal agents” (Intellectual Property Department, BASF Aktiengesellschaft, priority 1998, published 2002).

Columns and labels:
CASOB (Sicklepod) = assay: Postemergence herbicidal evaluation; assay type: in vivo, Cassia obtusifolia; conditions: postemergence
Method in brief: (§1)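 Two-week-old seedlings sprayed with compound in 50/50 acetone/water plus 0.5% TWEEN 20, at about 0.0156 to 0.500 kg/ha, nozzle at 40 psi. Kept in greenhouse; rated visually 4-5 weeks after treatment on a 0-9 scale versus control, repeat tests averaged.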

[1] = test system: CHEAL (Lambsquarters, Common); assay: Postemergence herbicidal evaluation; assay type: in vivo, Chenopodium album; conditions: postemergence
Method in brief: as §1

ECHCG (Barnyardgrass) = assay: Postemergence herbicidal evaluation; assay type: in vivo, Echinochloa crus-galli; conditions: postemergence
Method in brief: as §1

ORYSAT (Rice, Tebonnet) [2] = assay: Postemergence herbicidal evaluation; assay type: in vivo, Oryza sativa, (L.) Tebonnet; conditions: postemergence
Method in brief: as §1

GALAP (Galium) = assay: Preemergence herbicidal evaluation; assay type: in vivo, Galium aparine; conditions: rated 4-5 weeks after treatment, rating scale 0-9
Method in brief: (§2)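 Steps: mix seeds into potting soil; plant atop ~1 inch soil; spray compound in aqueous acetone (~0.0156-0.500 kg/ha equivalent); maintain in greenhouse with watering; rate visually 0-9 versus control at 4-5 weeks.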

SETVI (Foxtail, Green) = assay: Preemergence herbicidal evaluation; assay type: in vivo, Setaria viridis; conditions: rated 4-5 weeks after treatment, rating scale 0-9
Method in brief: as §2

[3] = test system: GLXMAW (Soybean, Williams); assay: Preemergence herbicidal evaluation; assay type: in vivo, Glycine max, (L.) Merr. cv Williams; conditions: rated 4-5 weeks after treatment, rating scale 0-9
Method in brief: as §2

ORYSAT (Rice, Tebonnet) [4] = assay: Preemergence herbicidal evaluation; assay type: in vivo, Oryza sativa, (L.) Tebonnet; conditions: rated 4-5 weeks after treatment, rating scale 0-9
Method in brief: as §2

[5] = test system: TRZAWR (Wheat, Winter, cv Riband); assay: Preemergence herbicidal evaluation; assay type: in vivo, Triticum aestivum; conditions: rated 4-5 weeks after treatment, rating scale 0-9
Method in brief: as §2

ZEAMX (Corn, Field) = assay: Preemergence herbicidal evaluation; assay type: in vivo, Zea mays; conditions: rated 4-5 weeks after treatment, rating scale 0-9
Method in brief: as §2

CYPIR (Rice Flatsedge) = assay: Preemergence weed control under flooded paddy conditions; assay type: in vivo, Cyperus iria; conditions: rated 3-4 weeks after treatment
Method in brief: (§3)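 Ratings on a 0-9 visual scale cover stand, vigor, malformation, size, chlorosis and overall appearance relative to a control, taken three to four weeks post-treatment. Application was into flood water over freshly sown silt loam at roughly 0.0313 to 0.500 kg/ha.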

MOOVA (Monochoria) = assay: as above; assay type: in vivo, Monochoria vaginalis; conditions: rated 3-4 weeks after treatment
Method in brief: as §3

[6] = test system: SAGPY (Arrowhead (Pygmaea)); assay: as above; assay type: in vivo, Sagittaria pygmaea; conditions: rated 3-4 weeks after treatment
Method in brief: as §3

With `Cn1c(C(F)(F)F)cc(=O)n(-c2cc(N=C3SCC(=O)N3Cc3ccc(Br)cc3)c(Cl)cc2F)c1=O` [Compound 148, 3-{5-{[3-(p-Bromobenzyl)-4-oxo-2-thiazolidinyl-idene]amino}-4-chloro-2-fluorophenyl}-1-methyl-6-(trifluoromethyl)-2,4(1H,3H)-pyrimidinedione] the “herbicidal rating CASOB” value (CASOB (Sicklepod); rate 0.0156 kg/ha) was 3.0, the “herbicidal rating CASOB” value (CASOB (Sicklepod); rate 0.0313 kg/ha) was 3.0 and the “herbicidal rating CASOB” value (CASOB (Sicklepod); rate 0.0625 kg/ha) was 3.0. For the same compound, the “herbicidal rating CHEAL” value ([1]; rate 0.0156 kg/ha) was 4.0, the “herbicidal rating CHEAL” value ([1]; rate 0.0313 kg/ha) was 7.0 and the “herbicidal rating CHEAL” value ([1]; rate 0.0625 kg/ha) was 7.0. For the same compound, the “herbicidal rating ECHCG” value (ECHCG (Barnyardgrass); rate 0.0156 kg/ha) was 2.0, the “herbicidal rating ECHCG” value (ECHCG (Barnyardgrass); rate 0.0313 kg/ha) was 3.0 and the “herbicidal rating ECHCG” value (ECHCG (Barnyardgrass); rate 0.0625 kg/ha) was 3.0. The “herbicidal rating ORYSAT” value (ORYSAT (Rice, Tebonnet) [2]; rate 0.0156 kg/ha) was 2.0, the “herbicidal rating ORYSAT” value (ORYSAT (Rice, Tebonnet) [2]; rate 0.0313 kg/ha) was 3.0 and the “herbicidal rating ORYSAT” value (ORYSAT (Rice, Tebonnet) [2]; rate 0.0625 kg/ha) was 3.0. For the same compound, the “Preemergence herbicidal rating GALAP” value (GALAP (Galium); rate 0.0313 kg/ha) was 0.0, the “Preemergence herbicidal rating GALAP” value (GALAP (Galium); rate 0.0625 kg/ha) was 0.0 and the “Preemergence herbicidal rating GALAP” value (GALAP (Galium); rate 0.1250 kg/ha) was 0.0. The “Preemergence herbicidal rating GALAP” value (GALAP (Galium); rate 0.2500 kg/ha) was 0.0, the “Preemergence herbicidal rating SETVI” value (SETVI (Foxtail, Green); rate 0.0313 kg/ha) was 1.0 and the “Preemergence herbicidal rating SETVI” value (SETVI (Foxtail, Green); rate 0.0625 kg/ha) was 0.0. The “Preemergence herbicidal rating SETVI” value (SETVI (Foxtail, Green); rate 0.1250 kg/ha) was 0.0, the “Preemergence herbicidal rating SETVI” value (SETVI (Foxtail, Green); rate 0.2500 kg/ha) was 5.0 and the “Preemergence herbicidal rating GLXMAW” value ([3]; rate 0.0313 kg/ha) was 0.0. The “Preemergence herbicidal rating GLXMAW” value ([3]; rate 0.0625 kg/ha) was 0.0, the “Preemergence herbicidal rating GLXMAW” value ([3]; rate 0.1250 kg/ha) was 0.0 and the “Preemergence herbicidal rating GLXMAW” value ([3]; rate 0.2500 kg/ha) was 0.0. The “Preemergence herbicidal rating ORYSAT” value (ORYSAT (Rice, Tebonnet) [4]; rate 0.0313 kg/ha) was 0.0, the “Preemergence herbicidal rating ORYSAT” value (ORYSAT (Rice, Tebonnet) [4]; rate 0.0625 kg/ha) was 0.0 and the “Preemergence herbicidal rating ORYSAT” value (ORYSAT (Rice, Tebonnet) [4]; rate 0.1250 kg/ha) was 0.0. The “Preemergence herbicidal rating ORYSAT” value (ORYSAT (Rice, Tebonnet) [4]; rate 0.2500 kg/ha) was 0.0, the “Preemergence herbicidal rating TRZAWR” value ([5]; rate 0.0313 kg/ha) was 0.0 and the “Preemergence herbicidal rating TRZAWR” value ([5]; rate 0.0625 kg/ha) was 0.0. The “Preemergence herbicidal rating TRZAWR” value ([5]; rate 0.1250 kg/ha) was 0.0, the “Preemergence herbicidal rating TRZAWR” value ([5]; rate 0.2500 kg/ha) was 0.0 and the “Preemergence herbicidal rating ZEAMX” value (ZEAMX (Corn, Field); rate 0.0313 kg/ha) was 0.0. The “Preemergence herbicidal rating ZEAMX” value (ZEAMX (Corn, Field); rate 0.0625 kg/ha) was 0.0, the “Preemergence herbicidal rating ZEAMX” value (ZEAMX (Corn, Field); rate 0.1250 kg/ha) was 0.0 and the “Preemergence herbicidal rating ZEAMX” value (ZEAMX (Corn, Field); rate 0.2500 kg/ha) was 1.0. The “herbicidal effect rating, CYPIR” value (CYPIR (Rice Flatsedge); 0.0313 kg/ha) was 4.0, the “herbicidal effect rating, CYPIR” value (CYPIR (Rice Flatsedge); 0.0625 kg/ha) was 4.0 and the “herbicidal effect rating, CYPIR” value (CYPIR (Rice Flatsedge); 0.1250 kg/ha) was 6.0. The “herbicidal effect rating, CYPIR” value (CYPIR (Rice Flatsedge); 0.2500 kg/ha) was 7.0, the “herbicidal effect rating, MOOVA” value (MOOVA (Monochoria); 0.0313 kg/ha) was 7.0 and the “herbicidal effect rating, MOOVA” value (MOOVA (Monochoria); 0.0625 kg/ha) was 7.0. For the same compound, the “herbicidal effect rating, MOOVA” value (MOOVA (Monochoria); 0.1250 kg/ha) was 9.0, the “herbicidal effect rating, MOOVA” value (MOOVA (Monochoria); 0.2500 kg/ha) was 9.0 and the “herbicidal effect rating, SAGPY” value ([6]; 0.0313 kg/ha) was 0.0. The “herbicidal effect rating, SAGPY” value ([6]; 0.0625 kg/ha) was 3.0, the “herbicidal effect rating, SAGPY” value ([6]; 0.1250 kg/ha) was 4.0 and the “herbicidal effect rating, SAGPY” value ([6]; 0.2500 kg/ha) was 4.0.
In the case of `Cn1c(C(F)(F)F)cc(=O)n(-c2cc(N=C3SCC(=O)N3Cc3ccc(Cl)cc3)c(Cl)cc2F)c1=O` [Compound 145, 3-{4-Chloro-5-{[3-(p-chlorobenzyl)-4-oxo-2-thiazolidinylidene]amino}-2-fluorophenyl}-1-methyl-6-(trifluoromethyl)-2,4(1H,3H)-pyrimidinedione], the “herbicidal rating CASOB” value (CASOB (Sicklepod); rate 0.0156 kg/ha) is reported as 1.0, the “herbicidal rating CASOB” value (CASOB (Sicklepod); rate 0.0313 kg/ha) is reported as 2.0 and the “herbicidal rating CASOB” value (CASOB (Sicklepod); rate 0.0625 kg/ha) is reported as 5.0. The “herbicidal rating CHEAL” value ([1]; rate 0.0156 kg/ha) was 5.0, the “herbicidal rating CHEAL” value ([1]; rate 0.0313 kg/ha) was 9.0 and the “herbicidal rating CHEAL” value ([1]; rate 0.0625 kg/ha) was 9.0. For the same compound, the “herbicidal rating ECHCG” value (ECHCG (Barnyardgrass); rate 0.0156 kg/ha) was 2.0, the “herbicidal rating ECHCG” value (ECHCG (Barnyardgrass); rate 0.0313 kg/ha) was 3.0 and the “herbicidal rating ECHCG” value (ECHCG (Barnyardgrass); rate 0.0625 kg/ha) was 3.0. The “herbicidal rating ORYSAT” value (ORYSAT (Rice, Tebonnet) [2]; rate 0.0156 kg/ha) was 2.5, the “herbicidal rating ORYSAT” value (ORYSAT (Rice, Tebonnet) [2]; rate 0.0313 kg/ha) was 2.5 and the “herbicidal rating ORYSAT” value (ORYSAT (Rice, Tebonnet) [2]; rate 0.0625 kg/ha) was 3.5. The “Preemergence herbicidal rating GALAP” value (GALAP (Galium); rate 0.0156 kg/ha) was 0.0, the “Preemergence herbicidal rating GALAP” value (GALAP (Galium); rate 0.0313 kg/ha) was 0.0 and the “Preemergence herbicidal rating GALAP” value (GALAP (Galium); rate 0.0625 kg/ha) was 0.0. The “Preemergence herbicidal rating GALAP” value (GALAP (Galium); rate 0.1250 kg/ha) was 1.0, the “Preemergence herbicidal rating GALAP” value (GALAP (Galium); rate 0.2500 kg/ha) was 3.0 and the “Preemergence herbicidal rating SETVI” value (SETVI (Foxtail, Green); rate 0.0156 kg/ha) was 1.0. The “Preemergence herbicidal rating SETVI” value (SETVI (Foxtail, Green); rate 0.0313 kg/ha) was 0.0, the “Preemergence herbicidal rating SETVI” value (SETVI (Foxtail, Green); rate 0.0625 kg/ha) was 7.0 and the “Preemergence herbicidal rating SETVI” value (SETVI (Foxtail, Green); rate 0.1250 kg/ha) was 3.0. For the same compound, the “Preemergence herbicidal rating SETVI” value (SETVI (Foxtail, Green); rate 0.2500 kg/ha) was 7.0, the “Preemergence herbicidal rating GLXMAW” value ([3]; rate 0.0156 kg/ha) was 0.0 and the “Preemergence herbicidal rating GLXMAW” value ([3]; rate 0.0313 kg/ha) was 0.0. For the same compound, the “Preemergence herbicidal rating GLXMAW” value ([3]; rate 0.0625 kg/ha) was 0.0, the “Preemergence herbicidal rating GLXMAW” value ([3]; rate 0.1250 kg/ha) was 1.0 and the “Preemergence herbicidal rating GLXMAW” value ([3]; rate 0.2500 kg/ha) was 2.0. For the same compound, the “Preemergence herbicidal rating ORYSAT” value (ORYSAT (Rice, Tebonnet) [4]; rate 0.0156 kg/ha) was 1.0, the “Preemergence herbicidal rating ORYSAT” value (ORYSAT (Rice, Tebonnet) [4]; rate 0.0313 kg/ha) was 1.0 and the “Preemergence herbicidal rating ORYSAT” value (ORYSAT (Rice, Tebonnet) [4]; rate 0.0625 kg/ha) was 2.0. For the same compound, the “Preemergence herbicidal rating ORYSAT” value (ORYSAT (Rice, Tebonnet) [4]; rate 0.1250 kg/ha) was 3.0, the “Preemergence herbicidal rating ORYSAT” value (ORYSAT (Rice, Tebonnet) [4]; rate 0.2500 kg/ha) was 1.0 and the “Preemergence herbicidal rating TRZAWR” value ([5]; rate 0.0156 kg/ha) was 0.0. For the same compound, the “Preemergence herbicidal rating TRZAWR” value ([5]; rate 0.0313 kg/ha) was 1.0, the “Preemergence herbicidal rating TRZAWR” value ([5]; rate 0.0625 kg/ha) was 1.0 and the “Preemergence herbicidal rating TRZAWR” value ([5]; rate 0.1250 kg/ha) was 0.0. The “Preemergence herbicidal rating TRZAWR” value ([5]; rate 0.2500 kg/ha) was 1.0, the “Preemergence herbicidal rating ZEAMX” value (ZEAMX (Corn, Field); rate 0.0156 kg/ha) was 0.0 and the “Preemergence herbicidal rating ZEAMX” value (ZEAMX (Corn, Field); rate 0.0313 kg/ha) was 0.0. The “Preemergence herbicidal rating ZEAMX” value (ZEAMX (Corn, Field); rate 0.0625 kg/ha) was 0.0, the “Preemergence herbicidal rating ZEAMX” value (ZEAMX (Corn, Field); rate 0.1250 kg/ha) was 1.0 and the “Preemergence herbicidal rating ZEAMX” value (ZEAMX (Corn, Field); rate 0.2500 kg/ha) was 2.0. The “herbicidal effect rating, CYPIR” value (CYPIR (Rice Flatsedge); 0.0313 kg/ha) was 4.0, the “herbicidal effect rating, CYPIR” value (CYPIR (Rice Flatsedge); 0.0625 kg/ha) was 5.0 and the “herbicidal effect rating, CYPIR” value (CYPIR (Rice Flatsedge); 0.1250 kg/ha) was 7.0. For the same compound, the “herbicidal effect rating, CYPIR” value (CYPIR (Rice Flatsedge); 0.2500 kg/ha) was 9.0, the “herbicidal effect rating, MOOVA” value (MOOVA (Monochoria); 0.0313 kg/ha) was 4.0 and the “herbicidal effect rating, MOOVA” value (MOOVA (Monochoria); 0.0625 kg/ha) was 6.0. The “herbicidal effect rating, MOOVA” value (MOOVA (Monochoria); 0.1250 kg/ha) was 9.0, the “herbicidal effect rating, MOOVA” value (MOOVA (Monochoria); 0.2500 kg/ha) was 9.0 and the “herbicidal effect rating, SAGPY” value ([6]; 0.0313 kg/ha) was 0.0. The “herbicidal effect rating, SAGPY” value ([6]; 0.0625 kg/ha) was 2.0, the “herbicidal effect rating, SAGPY” value ([6]; 0.1250 kg/ha) was 5.0 and the “herbicidal effect rating, SAGPY” value ([6]; 0.2500 kg/ha) was 5.0.
